# Assay results reported in ChEMBL document CHEMBL1148057, “1'-(2-Phenyl-ethylene)-ditryptophenaline, a new dimeric diketopiperazine from Aspergillus flavus” (J Nat Prod, 1994).
# Active and inactive are the calls of the source. No cut-off for these calls is given here.
# Tests used:
# Substance-P receptor [1] = molecular target: T1, Substance-P receptor (Homo sapiens, UniProt P25103); test: Inhibition of substance P receptor
# Substance-P receptor [2] = molecular target: T1, Substance-P receptor; test: Inhibition of substance P receptor at 100 uM
# T1 sequence (P25103 whole entry): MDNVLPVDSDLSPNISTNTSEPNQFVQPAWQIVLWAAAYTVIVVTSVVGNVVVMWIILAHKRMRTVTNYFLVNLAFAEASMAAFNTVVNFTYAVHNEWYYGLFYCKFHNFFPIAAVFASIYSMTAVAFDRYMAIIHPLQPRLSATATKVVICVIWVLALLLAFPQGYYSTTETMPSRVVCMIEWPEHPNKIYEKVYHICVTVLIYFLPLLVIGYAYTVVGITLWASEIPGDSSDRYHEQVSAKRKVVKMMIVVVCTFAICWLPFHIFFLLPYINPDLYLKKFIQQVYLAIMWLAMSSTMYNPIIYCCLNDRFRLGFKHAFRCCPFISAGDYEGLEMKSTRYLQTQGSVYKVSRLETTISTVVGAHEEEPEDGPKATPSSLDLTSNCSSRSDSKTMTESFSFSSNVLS
Compound,IC50 (Substance-P receptor [1]) [µM],Activity (Substance-P receptor [2])
CN1C(=O)[C@@H]2C[C@@]3([C@@]45C[C@H]6C(=O)N(C)[C@@H](Cc7ccccc7)C(=O)N6[C@@H]4Nc4ccccc45)c4ccccc4N[C@H]3N2C(=O)[C@@H]1Cc1ccccc1 [DITRYPTOPHENALINE],12,
O=C1N[C@@H](Cc2ccccc2)C(=O)N2[C@H]3Nc4ccccc4[C@@]3([C@]34C[C@H]5C(=O)N[C@@H](Cc6ccccc6)C(=O)N5[C@H]3Nc3ccccc34)C[C@@H]12,0.23,
CN1C(=O)[C@@H]2C[C@@]3([C@@]45C[C@H]6C(=O)N(C)[C@@H](Cc7ccccc7)C(=O)N6[C@@H]4N(/C=C/c4ccccc4)c4ccccc45)c4ccccc4N[C@H]3N2C(=O)[C@@H]1Cc1ccccc1,,inactive
